# Measured values reported in patent US9789211B2, “Methods and compositions for positron emission tomography myocardial perfusion imaging” (UNIVERSITY OF SOUTHERN CALIFORNIA, priority 2012, dated 2017).
# Columns and labels:
# [1] = test system: H345 lung carcinoma cells; assay: mitochondrial membrane potential-dependent cellular uptake with CCCP treatment; format: cell-based; settings: H345 cells incubated 10 min with CCCP before adding tracers
# Description: Uptake kinetics of ^64Cu-Sar-TPP and 3H-TPP (standard) may be examined in H345 lung carcinoma cells. In brief, H345 cells will be harvested by trypsinization and washed twice with cold PBS buffer. Cells are counted and re-suspended in loading buffer at a concentration of 2×10^6 cells/mL. The cell suspension (0.5 mL) may be transferred to Eppendorf tubes and incubated at 37° C. for 60 min. An equal volume of loading solution containing 0.5-5 nM ^64Cu-Sar-TPP and 3H-TPP will be added. The sample may be centrifuged (800 rpm, 5 min) to terminate the uptake. Aliquots of the supernatant are then obtained and the remaining solution is aspirated. The radioactivity of the pellet and supernatant is counted together with standard solution ( 1/1,000) in a gamma counter. After completion of gamma counting, scintillation counting are performed after the complete decay of ^64Cu (two weeks). Cell uptake values of ^64Cu-Sar-TPP in H345 cells may be determined over incubation periods of 0.5, 1, 2, 4, and 24 h. […] The mitochondrial membrane potential-dependent cellular uptake of ^64Cu-Sar-TPP will be further assessed using the H345 cells treated with carbonyl cyanide m-chlorophenylhydrazone (CCCP). […] Only the ^64Cu-Sar-TPP probes that are sensitive towards CCCP will be evaluated in future investigation because this experiment supports the tracer uptakes are depend on mitochondria potential as we proposed above.
# [2] = cited from earlier work
# [3] = cited from earlier work; remark: listed apart in the source
compound,measurement,setting,value
"N#CC(C#N)=NNc1cccc(Cl)c1 [CCCP, carbonyl cyanide m-chlorophenylhydrazone]",cell-associated activity of ^64Cu-Sar-TPP and 3H-TPP,[1],dose dependent decrease
[C-]#[N+]CC(C)(C)OC.[C-]#[N+]CC(C)(C)OC.[C-]#[N+]CC(C)(C)OC.[C-]#[N+]CC(C)(C)OC.[C-]#[N+]CC(C)(C)OC.[C-]#[N+]CC(C)(C)OC.[Tc] [^99mTc-sestamibi],log P,[2],1.1
^64/62Cu-pyruvaldehyde-bis(N4-methyl-thiosemicarbazone) [[^64/62Cu]-PTSM],clearance from the blood pool,[3]; association with serum albumin,clears slowly
same,liver uptake,[3]; spillover into the inferior wall of myocardial,high liver uptake
